The Ki is the equilibrium dissociation constant of an inhibitor or competing ligand from its target.

One data set deals with amylin receptors. The settings on record: mutated human amylin, cell-based system; cited from earlier work. An excerpt: Receptor–ligand interaction studies with alanine-scanning mutagenesis have been reported for amylin receptors. Lee et al. first introduced alanine-scanning mutagenesis to calcitonin and AC413 peptides and examined the role of each amino acid in the interaction with amylin receptor 1 ECD [20]. They reported critical amino acids of peptide ligands for amylin receptor 1 ECD binding. Their results were supported by the following structural studies with the calcitonin receptor ECD and salmon calcitonin fragments. Recently, Lee S introduced alanine-scanning mutagenesis to a rat amylin ...

Data set [1] concerns the target T1, amylin receptor 1 ECD with the E123A mutation (Homo sapiens, UniProt O60894+P30988, E123A).
T1 construct: pHLsec/hRAMP1.24–111-(GSA)3-hCTR.34–141.E123A-H6 (D-pJJ004); H6 (hexahistidine) (C); made in house; host or cells: HEK293 (transient transfection, secreted, N-glycosylated)
Nature of the data set: Competition binding assay with non-labeled sCT(22–32), E123A. The conditions noted are these: competition with 10 nM FITC-sCT(22–32), receptor ECD E123A 365 nM, 1 hour, anisotropy. As to the method: (§1) The overall procedure of the FP binding assay with a saturation binding format was previously described. A total of 10 nM FITC-labeled sCT(22–32) and 10 nM FITC-labeled AC413(6–25) with Y25P mutation were used for the receptor–ligand binding assay. For the saturation binding format, the non-linear regression curves were generated by using user-defined equations that were previously described for affinity calculation. FITC-labeled peptide probes were incubated for 1 h at room temperature with the purified receptor protein prior to fluorescence signal measurement. A BioTek Synergy H1 microplate reader (Agilent, Santa Clara, CA, USA) was used to evaluate fluorescence polarization/anisotropy. […] When total fluorescence intensity of the FITC-labeled probes was altered with receptor binding by more than 10% from the starting fluorescence value, the anisotropy was adjusted to reflect the fluorescence change as previously described. […] PRISM 5.0 was fully functional, with the user-defined equations used predicting KD values from fluorescence polarization/anisotropy. […]
(§2) The mixture of the competitive peptide with varying concentrations, 10 nM FITC -sCT(22 –32), and the receptor ECD protein with the concentration described earlier was incubated for 1 hour. The anisotropy signal was measured by using a BioTek Synergy H1 microplate reader (Agilent, Santa Clara, CA, USA). […]

Data set [2] has as its target T2, wild-type amylin receptor 1 ECD (Homo sapiens, UniProt O60894+P30988).
T2 construct: pHLsec/hRAMP1.24–111-(GSA)3-hCTR.34–141-H6 (H-pSL005); H6 (hexahistidine) (C); made in house; host or cells: HEK293 (transient transfection, secreted, N-glycosylated)
Nature of the data set: Competition binding assay with non-labeled sCT(22–32), WT. The conditions noted are these: competition with 10 nM FITC-sCT(22–32), receptor ECD 81 nM, 1 hour, anisotropy. As to the method: as §1, §2

Data set [3] concerns the target T3, amylin receptor 1 ECD with the E123D mutation (Homo sapiens, UniProt O60894+P30988, E123D).
T3 construct: pHLsec/hRAMP1.24–111-(GSA)3-hCTR.34–141.E123D-H6 (D-pJJ001); H6 (hexahistidine) (C); made in house; host or cells: HEK293 (transient transfection, secreted, N-glycosylated)
In words: Competition binding assay with non-labeled sCT(22–32), E123D. The settings on record: competition with 10 nM FITC-sCT(22–32), receptor ECD E123D 53 nM, 1 hour, anisotropy. As to the method: as §1, §2

Data set [4] concerns calcitonin receptor N135A, phosphorylation of extracellular signal-regulated kinase (ERK). The conditions noted are these: cited from earlier work. How it is done:
(§3) Several receptor–ligand interaction studies introducing mutagenesis to calcitonin and amylin receptors are also available. Among these previous reports, an extensive receptor–ligand interaction study was reported where alanine-scanning mutagenesis was applied to the upper segment of transmembrane helix 1 (TM1) of the calcitonin receptor and its extension into the receptor ECD [31]. Although the study focused on TM1, some residues of calcitonin receptor ECD were mutated and were tested for peptide ligand interaction. When the N135 residue was mutated to alanine, the ...

The test system of data set [5] is calcitonin receptor N135A, cAMP production. The conditions noted are these: cited from earlier work. As to the method:
as §3

The conditions of data set [6]: cited from earlier work. An excerpt:
(§4) Due to the inherent nature of the calcitonin receptor as the main component of the functional amylin receptor, a calcitonin peptide is used as an agonist for amylin receptors. […] Accordingly, salmon calcitonin is well-characterized as a dual agonist for calcitonin and amylin receptors and is commonly used for research targeting amylin receptors.

The test system of another data set is pancreatic β-cells. The settings on record: in words; cited from earlier work.
Description: as §4

The test system of data set [7] is calcitonin receptor D101A. The conditions noted are these: cAMP production, calcitonin receptor activation, cited from earlier work. How it is done: (§5) Gingell et al. addressed the receptor interaction with human calcitonin and rat amylin by introducing mutations to the peptide-binding pocket of the calcitonin receptor and amylin receptor 1 ECDs. The peptide potency for calcitonin receptor and amylin receptor 1 activation was investigated by measuring cAMP production. Multiple residues located in the peptide-binding pocket were tested for peptide-mediated receptor activation. They reported the mutational effects of D101A and N124A that were used in the current study. Consistent with our binding results, the D101A mutation markedly decr ...

In data set [8] the test system is calcitonin receptor and amylin receptor 1 with N124A. The settings on record: cAMP production, in words; cited from earlier work. An excerpt: The N124 residue of the calcitonin receptor appeared dispensable for amylin receptor 1 activation mediated by calcitonin or amylin. The affinity decreases for receptor ECD by 8-fold and more may be insufficient to produce the potency decrease in the activation of the full-length calcitonin and amylin rec ...

The subject of data set [9] is calcitonin receptor N135A. The conditions noted are these: cited from earlier work. How it is done:
as §3

In data set [10] the test system is amylin receptor 1 with D101A. The conditions noted are these: cAMP production, amylin receptor 1 activation; cited from earlier work. As to the method: as §5
(Cyclic AMP is a second messenger, typically raised through Gs and lowered through Gi signalling.)

The subject of data set [11] is human calcitonin and amylin receptors. The conditions noted are these: in words; cited from earlier work.
Description: as §4

Where no end group is shown, it is not given here.

T2 sequence (O60894 24-111): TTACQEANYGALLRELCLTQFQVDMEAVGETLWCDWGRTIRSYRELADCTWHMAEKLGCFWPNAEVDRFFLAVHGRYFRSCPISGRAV
T2 sequence (P30988 34-141): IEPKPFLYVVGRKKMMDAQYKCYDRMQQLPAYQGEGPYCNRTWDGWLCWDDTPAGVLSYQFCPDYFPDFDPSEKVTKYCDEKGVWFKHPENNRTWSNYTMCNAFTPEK
T1 sequence (O60894 24-111): as the sequence (O60894 24-111) above
T1 sequence (P30988 34-141 E123A): as the sequence (P30988 34-141) above, with E90A counted along it
T3 sequence (O60894 24-111): as the sequence (O60894 24-111) above
T3 sequence (P30988 34-141 E123D): as the sequence (P30988 34-141) above, with E90D counted along it

For the substance “A5S: human amylin with mutation A5S (KCNTSTCATQRLANFLVHSSNNFGAILSSTNVGSNTY; ends and bridges not checked; cysteine pairing not given here; UniProt P10997 34-70, looked up, variant A5S)”, the “amylin receptor activation potency” value in the data set with amylin receptors is listed as “significantly increased the amylin receptor activation potency”.
As to “Q10A: human amylin with mutation Q10A (KCNTATCATARLANFLVHSSNNFGAILSSTNVGSNTY; ends and bridges not checked; cysteine pairing not given here; UniProt P10997 34-70, looked up, variant Q10A)”, the “amylin receptor activation potency” value in the data set with amylin receptors is on record as “significantly increased the amylin receptor activation potency”.
As for “V17A: human amylin with mutation V17A (KCNTATCATQRLANFLAHSSNNFGAILSSTNVGSNTY; ends and bridges not checked; cysteine pairing not given here; UniProt P10997 34-70, looked up, variant V17A)”, the “amylin receptor activation potency” value with amylin receptors was “significantly increased the amylin receptor activation potency”.
With “YPRTNTGSGTP-NH2 [non-labeled sCT(22–32)]”, the values for the Ki in data set [1], in data set [2] and in data set [3] were 2510 nM, 891 nM and 1230 nM, respectively.
For the substance calcitonin, the “decrease of functional affinity (pKA)” value in [4] and in data set [5] was “less than 10 fold” each time.
With “human amylin: peptide hormone secreted from pancreatic β-cells, 37 amino acids (KCNTATCATQRLANFLVHSSNNFGAILSSTNVGSNTY; not fully specified (C-terminus, bridges); cysteine pairing not given here; UniProt P10997 34-70, looked up)”, the aggregation entry in data set [6] (human amylin) was “reported to form aggregates”. The “effect of aggregates on pancreatic β-cells” value in the data set with pancreatic β-cells is reported as “harm pancreatic β-cells”.
As to human calcitonin: peptide hormone, the decrease of potency in data set [7] (D101A) is on record as 17 fold. In addition, in [8], the “effect of N124A on potency” value was “did not significantly change the potency”. In addition, the “effect of N135A on binding” value in data set [9] is recorded as “abolished the binding”.
“porcine calcitonin: peptide hormone (CSNLSTCVLSAYWRNLNNFHRFSGMGFGPETP; ends and bridges not checked; cysteine pairing not given here; UniProt P01259 1-32, looked up)”: the “effect of N135A on binding” value in data set [9] is given as “abolished the binding”.
Take rat amylin: rodent (rat/mouse) amylin: the “effect of D101A on potency” value in [7] (in words) was “not significantly altered”. Further, in [10], the decrease of potency is 68 fold. Also, the aggregation propensity entry in data set [6] (rodent (rat/mouse) amylin versus human amylin) is “less propensity for forming aggregates than human amylin”. In addition, the “effect of N124A on potency” value in data set [8] is given as “did not significantly change the potency”.
As for salmon calcitonin, the “binding and receptor activation potency” value in data set [11] is on record as “strong receptor activation potency”.

The record behind these values is publication PMC12292835, “Amylin Receptor 1 Mutagenesis Revealed a Potential Role of Calcitonin Serine 29 in Receptor Interaction” (Biomedicines, 2025).
